Structures are written as SMILES.

Acrosin, sequence (P10323 20-42 limits assumed): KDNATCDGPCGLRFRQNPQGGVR
Acrosin, sequence (P10323 43-343 limits assumed): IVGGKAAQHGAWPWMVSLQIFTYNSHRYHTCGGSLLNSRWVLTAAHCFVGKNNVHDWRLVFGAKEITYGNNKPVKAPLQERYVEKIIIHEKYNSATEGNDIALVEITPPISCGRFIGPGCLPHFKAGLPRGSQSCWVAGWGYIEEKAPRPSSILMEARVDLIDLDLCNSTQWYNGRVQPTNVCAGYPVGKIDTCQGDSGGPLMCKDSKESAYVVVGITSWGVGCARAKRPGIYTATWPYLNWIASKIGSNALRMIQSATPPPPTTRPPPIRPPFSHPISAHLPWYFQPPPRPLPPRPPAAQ

This assay has as its target Acrosin (Homo sapiens, UniProt P10323). As to the kind of experiment: Inhibition of human sperm acrosin using BAPNA as substrate after 3 hrs by spectrophotometric analysis.
With `O=Cc1cc(-c2ccc(Cl)cc2Cl)on1`, half-maximal inhibition (IC50) was put at 0.39 mM. The same measure for `COc1ccc(-c2cc(C(=O)N(C)CCO)n[nH]2)cc1`: 0.41 mM; for `CC(O)CNC(=O)c1cc(-c2ccccc2)[nH]n1` (stereo not drawn): 0.06 mM.

Compound `O=C(NCCCO)c1cc(-c2ccccc2)[nH]n1` yielded an IC50 of 0.54 mM. The same measure for `O=C(c1cc(-c2ccccc2)[nH]n1)N(CCO)CCO`: 1.7 mM; for `O=C(NCCO)c1cc(-c2ccccc2)n[nH]1`: 2.8 mM; for `O=C(NCCOCCO)c1cc(-c2ccc(Br)cc2)[nH]n1`: 10 mM. The same measure for `CC(CO)NC(=O)c1cc(-c2ccc(Br)cc2)n[nH]1` (stereo not drawn): 0.88 mM.

Turning to `CC(O)CNC(=O)c1cc(-c2ccc(Br)cc2)n[nH]1` (stereo not drawn), the IC50 worked out at 0.33 mM. This IC50 is about 2.7-fold lower than that of the compound before.

As to `O=C(NCCCO)c1cc(-c2ccc(Br)cc2)[nH]n1`, half-maximal inhibition (IC50) was put at 0.38 mM. In the case of `O=C(c1cc(-c2ccc(Br)cc2)n[nH]1)N(CCO)CCO` it was 1.52 mM; in that of `O=C(NCCO)c1cc(-c2ccc(Br)cc2)[nH]n1`, 0.53 mM.

As to `O=C(NC(CO)(CO)CO)c1cc(-c2cccc([N+](=O)[O-])c2)[nH]n1`, the IC50 was 0.76 mM. In the case of `O=C(NCCOCCO)c1cc(-c2cccc([N+](=O)[O-])c2)n[nH]1` it was 9.1 mM; in that of `CN(CCO)C(=O)c1cc(-c2cccc([N+](=O)[O-])c2)n[nH]1`, 0.79 mM; in that of `CC(O)CNC(=O)c1cc(-c2cccc([N+](=O)[O-])c2)n[nH]1` (stereo not drawn), 1.83 mM. In the case of `O=C(NCCCO)c1cc(-c2cccc([N+](=O)[O-])c2)[nH]n1` it was 0.78 mM; in that of `O=C(c1cc(-c2cccc([N+](=O)[O-])c2)n[nH]1)N(CCO)CCO`, 2.4 mM; in that of `O=C(NCCO)c1cc(-c2cccc([N+](=O)[O-])c2)[nH]n1`, 0.76 mM. The compound `O=C(NC(CO)(CO)CO)c1cc(-c2ccc([N+](=O)[O-])cc2)[nH]n1` came in with a half-maximal inhibitory concentration (IC50) of 5.22 mM. The same measure for `O=C(NCCOCCO)c1cc(-c2ccc([N+](=O)[O-])cc2)n[nH]1`: 2.07 mM; for `CC(C)(CO)NC(=O)c1cc(-c2ccc([N+](=O)[O-])cc2)n[nH]1`: 1.87 mM; for `CN(CCO)C(=O)c1cc(-c2ccc([N+](=O)[O-])cc2)n[nH]1`: 2 mM. In the case of `CC(O)CN(CC(C)O)C(=O)c1cc(-c2ccc([N+](=O)[O-])cc2)n[nH]1` (stereo not drawn) it was 1.21 mM; in that of `CC(O)CNC(=O)c1cc(-c2ccc([N+](=O)[O-])cc2)[nH]n1` (stereo not drawn), 2.95 mM. In the case of `O=C(NCCCO)c1cc(-c2ccc([N+](=O)[O-])cc2)[nH]n1` it was 3.07 mM. Take `O=C(c1cc(-c2ccc([N+](=O)[O-])cc2)n[nH]1)N(CCO)CCO`: the IC50 came out at 5.6 mM. In the case of `O=C(NCCO)c1cc(-c2ccc([N+](=O)[O-])cc2)n[nH]1` it was 2.7 mM; in that of `COc1ccc(-c2cc(C(=O)NCCOCCO)[nH]n2)cc1`, 6.02 mM; in that of `COc1ccc(-c2cc(C(=O)NCCO)[nH]n2)cc1`, 0.09 mM. `O=C(NC(CO)(CO)CO)c1cc(-c2ccccc2)n[nH]1` registered an IC50 of 0.94 mM. Compared with the last compound, the IC50 is about 10-fold higher. In the case of `CC(CO)NC(=O)c1cc(-c2ccccc2)[nH]n1` (stereo not drawn) it was 3 mM; in that of `CC(O)CN(CC(C)O)C(=O)c1cc(-c2ccccc2)[nH]n1` (stereo not drawn), 0.01 mM.

What is called IC50 is the point on the concentration scale where inhibition reaches its midpoint. Read a high IC50 as weaker potency.
